Laboratory results from PubChem BioAssay AID1918998 (Molecular Pharmacology Branch, DTP, NCI, 2023).

Test system: 521955-158-R2-J5-PDC complex spheroid growth
Assay: Anticancer human tumor 521955-158-R2-J5-PDC patient-derived pancreatic carcinoma cell line growth inhibition [AhR]
Settings: for IC50: curve of first compound; for viability, T/C: stronger effect = lower value
How it was run: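 Agents were dosed in half-log steps down from roughly clinical Cmax, or from 10 microM where Cmax was unknown, alone and with AhR antagonists. Read-out: percent test/control growth of tumor spheroids containing HUVEC and MSC stromal cells.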

[1] = second compound 0.1 µM, first compound 0.0316 µM
[2] = second compound 0.1 µM, first compound 0.1 µM
[3] = second compound 0.1 µM, first compound 0.316 µM
[4] = second compound 0.1 µM, first compound 1 µM
[5] = second compound 0.1 µM, first compound 3.16 µM
[6] = second compound 0.1 µM, first compound 10 µM
[7] = second compound 0.316 µM, first compound 0.0316 µM
[8] = second compound 0.316 µM, first compound 0.1 µM
[9] = second compound 0.316 µM, first compound 0.316 µM
[10] = second compound 0.316 µM, first compound 1 µM
[11] = second compound 0.316 µM, first compound 3.16 µM
[12] = second compound 0.316 µM, first compound 10 µM
[13] = second compound 1 µM, first compound 0.0316 µM
[14] = second compound 1 µM, first compound 0.1 µM
[15] = second compound 1 µM, first compound 0.316 µM
[16] = second compound 1 µM, first compound 1 µM
[17] = second compound 1 µM, first compound 3.16 µM
[18] = second compound 1 µM, first compound 10 µM
[19] = second compound 3.16 µM, first compound 0.0316 µM
[20] = second compound 3.16 µM, first compound 0.1 µM
[21] = second compound 3.16 µM, first compound 0.316 µM
[22] = second compound 3.16 µM, first compound 1 µM
[23] = second compound 3.16 µM, first compound 3.16 µM
[24] = second compound 3.16 µM, first compound 10 µM
[25] = second compound 10 µM, first compound 0.0316 µM
[26] = second compound 10 µM, first compound 0.1 µM
[27] = second compound 10 µM, first compound 0.316 µM
[28] = second compound 10 µM, first compound 1 µM
[29] = second compound 10 µM, first compound 3.16 µM
[30] = second compound 10 µM, first compound 10 µM
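For viability, T/C in this document: spheroids mix tumor cells with HUVEC endothelium and human MSC stroma; luminescence taken as viability surrogate after a week of drug exposure.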

SMILES	IC50 (second compound 0.1 µM) [nM]	IC50 (second compound 0.316 µM) [nM]	IC50 (second compound 1 µM) [nM]	IC50 (second compound 3.16 µM) [nM]	IC50 (second compound 10 µM) [nM]	viability, T/C [1] [%]	viability, T/C [2] [%]	viability, T/C [3] [%]	viability, T/C [4] [%]	viability, T/C [5] [%]	viability, T/C [6] [%]	viability, T/C [7] [%]	viability, T/C [8] [%]	viability, T/C [9] [%]	viability, T/C [10] [%]	viability, T/C [11] [%]	viability, T/C [12] [%]	viability, T/C [13] [%]	viability, T/C [14] [%]	viability, T/C [15] [%]	other results
Nc1ccn(C2OC(CO)C(O)C2(F)F)c(=O)n1 (stereo not given) + Cc1ccccc1N=Nc1ccc(NC(=O)c2ccnn2C)c(C)c1	267	501	448	405	338	76.7	52.4	57	28.4	13.3	14.5	66.8	52.7	85.8	22.3	13.5	12.5	66.5	52.5	71.2	viability, T/C [16]: 19.2%; viability, T/C [17]: 13.5%; viability, T/C [18]: 12.4%; viability, T/C [19]: 91.2%; viability, T/C [20]: 69.1%; viability, T/C [21]: 62.3%; viability, T/C [22]: 21.8%; viability, T/C [23]: 13.2%; viability, T/C [24]: 14.4%; viability, T/C [25]: 107%; viability, T/C [26]: 93.8%; viability, T/C [27]: 52.1%; viability, T/C [28]: 21.6%; viability, T/C [29]: 17.8%; viability, T/C [30]: 15.6%
O=C(C=Cc1cccc(S(=O)(=O)Nc2ccccc2)c1)NO + Cc1ccccc1N=Nc1ccc(NC(=O)c2ccnn2C)c(C)c1	> 10000	6540	> 10000	2920	3550	95.4	104	121	96	72.6	52	102	115	128	89.2	65.5	41.5	105	136	136	viability, T/C [16]: 102%; viability, T/C [17]: 59.5%; viability, T/C [18]: 48.9%; viability, T/C [19]: 105%; viability, T/C [20]: 116%; viability, T/C [21]: 154%; viability, T/C [22]: 93.7%; viability, T/C [23]: 54.2%; viability, T/C [24]: 39.4%; viability, T/C [25]: 147%; viability, T/C [26]: 146%; viability, T/C [27]: 129%; viability, T/C [28]: 87.9%; viability, T/C [29]: 56.6%; viability, T/C [30]: 24.9%
O=C(c1cc(Cc2n[nH]c(=O)c3ccccc23)ccc1F)N1CCN(C(=O)C2CC2)CC1 + Cc1ccccc1N=Nc1ccc(NC(=O)c2ccnn2C)c(C)c1	> 10000	> 10000	> 10000	> 10000	> 10000	101	83.6	98.5	104	73.6	63.1	90	85.7	101	88.6	80.8	77.8	134	107	136	viability, T/C [16]: 89.8%; viability, T/C [17]: 93%; viability, T/C [18]: 63.6%; viability, T/C [19]: 124%; viability, T/C [20]: 109%; viability, T/C [21]: 129%; viability, T/C [22]: 106%; viability, T/C [23]: 118%; viability, T/C [24]: 98%; viability, T/C [25]: 141%; viability, T/C [26]: 155%; viability, T/C [27]: 148%; viability, T/C [28]: 131%; viability, T/C [29]: 113%; viability, T/C [30]: 103%
